Reference: patent US10375962B2, “Heterocycle derivatives as pesticides” (BAYER CROPSCIENCE AKTIENGESELLSCHAFT, priority 2016, dated 2019)

What was measured:
[1] = test system: larvae of the mustard beetle (Phaedon cochleariae); test: Phaedon cochleariae - spray test; type: in vivo; details: after 7 days
Experimental: Solvent: 78.0 parts by weight of acetone • • 1.5 parts by weight of dimethylformamide
(§1) Emulsifier: alkylaryl polyglycol ether
(§2) To produce a suitable active compound formulation, 1 part by weight of active compound is dissolved with the stated parts by weight of solvent and made up with water containing an emulsifier concentration of 1000 ppm until the desired concentration is attained. To produce further test concentrations, the formulation is diluted with emulsifier-containing water.
Discs of Chinese cabbage leaves (Brassica pekinensis) are sprayed with an active compound formulation of the desired concentration and, after drying, populated with larvae of the mustard beetle (Phaedon cochleariae).
After 7 days, the efficacy in % is determined. 100% means that all the beetle larvae have been killed and 0% means that none of the beetle larvae have been killed.

[2] = log P by HPLC on a reversed-phase column (C 18), EEC Directive 79/831 Annex V.A8; type: physicochemical
Excerpt: Called log P (HCOOH) in the table.
Called log P (neutral) in the table.

[3] = test system: caterpillars of the armyworm (Spodoptera frugiperda); test: Spodoptera frugiperda - spray test; type: in vivo; details: maize leaf discs, after 7 days
Experimental: Solvent: 78.0 parts by weight of acetone • • 1.5 parts by weight of dimethylformamide Emulsifier: alkylaryl polyglycol ether […] To produce further test concentrations, the formulation is diluted with emulsifier-containing water. Leaf discs of maize (Zea mays) are sprayed with an active compound preparation of the desired concentration and, after drying, populated with caterpillars of the armyworm (Spodoptera frugiperda).

[4] = test system: southern root-knot nematode (Meloidogyne incognita); test: Meloidogyne incognita test; type: in vivo; details: application rate 20 ppm; lettuce; after 14 days
Experimental: Solvent: 125.0 parts by weight of acetone
To produce a suitable preparation of active compound, 1 part by weight of active compound is mixed with the stated amount of solvent and the concentrate is diluted with water to the desired concentration.
Vessels are filled with sand, active compound solution, an […] suspension of the southern root-knot nematode (Meloidogyne incognita) and lettuce seeds. The lettuce seeds germinate and the plants develop. The galls develop on the roots.
After 14 days, the nematicidal efficacy in % is determined by the formation of galls. 100% means that no galls were found; 0% means that the number of galls on the treated plants corresponds to the untreated control.

[5] = test system: unfed adult cat fleas (Ctenocephalides felis); test: Ctenocephalides felis - oral test; type: in vivo; details: application rate 100 ppm in citrated cattle blood; after 2 days
Experimental: (§3) Solvent: dimethyl sulphoxide
For the purpose of production of a suitable active compound formulation, 10 mg of active compound are mixed with 0.5 ml of dimethyl sulphoxide. Dilution with citrated cattle blood gives the desired concentration.
About 20 unfed adult cat fleas (Ctenocephalides felis) are placed into a chamber which is closed at the top and bottom with gauze. A metal cylinder whose bottom end is closed with parafilm is placed onto the chamber. The cylinder contains the blood/active compound formulation, which can be imbibed by the fleas through the parafilm membrane.
After 2 days, the kill in % is determined. 100% means that all of the fleas have been killed; 0% means that none of the fleas have been killed.

[6] = test system: L1 larvae of the Australian sheep blowfly (Lucilia cuprina); test: Lucilia cuprina test; type: in vivo; details: application rate 100 ppm; after 2 days
Experimental: as §3
(§4) To produce a suitable active compound formulation, 10 mg of active compound are mixed with 0.5 ml of dimethyl sulphoxide, and the concentrate is diluted with water to the desired concentration.
About 20 L1 larvae of the Australian sheep blowfly (Lucilia cuprina) are transferred into a test vessel containing minced horsemeat and the active compound formulation of the desired concentration.
After 2 days, the kill in % is determined. 100% means that all the larvae have been killed; 0% means that no larvae have been killed.

[7] = test system: green peach aphid (Myzus persicae); test: Myzus persicae - spray test (Chinese cabbage leaf discs); type: in vivo; details: after 5 days
Experimental: Solvent: 78 parts by weight of acetone • • 1.5 parts by weight of dimethylformamide Emulsifier: alkylaryl polyglycol ether
as §2
Discs of Chinese cabbage leaves (Brassica pekinensis) infested by all stages of the green peach aphid (Myzus persicae) are sprayed with an active compound formulation of the desired concentration.
After 5 days, the efficacy in % is determined. 100% means that all the aphids have been killed and 0% means that none of the aphids have been killed.

[8] = test system: adult houseflies (Musca domestica); test: Musca domestica test; type: in vivo; details: application rate 100 ppm; after 2 days
Experimental: as §3, §4
Vessels containing a sponge treated with sugar solution and the active compound formulation of the desired concentration are populated with 10 adult houseflies (Musca domestica).
After 2 days, the kill in % is determined. 100% means that all of the flies have been killed; 0% means that none of the flies have been killed.

[9] = test system: engorged adult female cattle ticks (Boophilus microplus); test: Boophilus microplus - injection test; type: in vivo; details: application rate 20 μg/animal, after 7 days
Experimental: as §3
To produce a suitable active compound formulation, 10 mg of active compound are mixed with 0.5 ml of solvent and the concentrate is diluted with solvent to the desired concentration.
1 μl of the active compound solution is injected into the abdomen of 5 engorged adult female cattle ticks (Boophilus microplus). The animals are transferred into dishes and kept in a climate-controlled room.
Efficacy is assessed after 7 days by laying of fertile eggs. Eggs which are not visibly fertile are stored in a climate-controlled cabinet until the larvae hatch after about 42 days. An efficacy of 100% means that none of the ticks has laid any fertile eggs; 0% means that all the eggs are fertile.

[10] = test system: adult cat fleas (Ctenocephalides felis); test: Ctenocephalides felis - in vitro contact tests with adult cat fleas; type: in vivo; details: application rate 5 μg/cm^2; after 48 h
Experimental: For the coating of the test tubes, 9 mg of active compound are first dissolved in 1 ml of acetone p.a. and then diluted to the desired concentration with acetone p.a. 250 μl of the solution are distributed homogeneously on the inner walls and the base of a 25 ml test tube by turning and rocking on an orbital shaker (rocking rotation at 30 rpm for 2 h). With 900 ppm of active compound solution and internal surface area 44.7 cm^2, given homogeneous distribution, an area-based dose of 5 μg/cm^2 is achieved.
After the solvent has evaporated off, the tubes are populated with 5-10 adult cat fleas (Ctenocephalides felis), sealed with a perforated plastic lid and incubated in a horizontal position at room temperature and ambient humidity. After 48 h, efficacy is determined. To this end, the test tubes are stood upright and the fleas are knocked to the base of the tube. Fleas which remain motionless at the base or move in an uncoordinated manner are considered to be dead or moribund.
100% efficacy means that all the fleas were dead or moribund. 0% efficacy means that no fleas were harmed.

[11] = test system: green peach aphid (Myzus persicae); test: Myzus persicae spray test (bell pepper plants); type: in vivo; details: application rate 20 ppm, after 6 days
Experimental: Solvent: 14 parts by weight of dimethylformamide
as §1
as §2, with “water. If the addition of ammonium salts or/and penetrants is required, these are each added in a concentration of 1000 ppm to the formulation solution.” for “water.”
Bell pepper plants (Capsicum annuum) severely infested with the green peach aphid (Myzus persicae) are treated by spraying with the active compound formulation in the desired concentration.
After 6 days, the kill in % is determined. 100% means that all of the aphids have been killed; 0% means that none of the aphids have been killed.

[12] = acidic range, pH 2.7, 0.1% aqueous formic acid/acetonitrile, 55° C.
[13] = neutral range, pH 7.8, 0.001 molar aqueous ammonium hydrogencarbonate/acetonitrile, 55° C.

SMILES	efficacy ([1]; application rate 100 g/ha) [%]	efficacy ([1]; application rate 500 g/ha) [%]	LOGP_HCOOH (log P (HCOOH)) ([2]; pH 2.7)	LOGP_NEUTRAL (log P (neutral)) ([2]; pH 7.8)	efficacy ([3]; application rate 100 g/ha) [%]	efficacy ([3]; application rate 500 g/ha) [%]	nematicidal efficacy (formation of galls) [4] [%]	efficacy (kill) [5] [%]	efficacy (kill) [6] [%]	efficacy ([7]; application rate 100 g/ha) [%]	efficacy ([7]; application rate 500 g/ha) [%]	efficacy (kill) [8] [%]	efficacy (laying of fertile eggs) [9] [%]	efficacy (fleas dead or moribund) [10] [%]	LOGP_HCOOH (log P (HCOOH)) [2, 12]	LOGP_NEUTRAL (log P (neutral)) [2, 13]	efficacy (kill) [11] [%]
CCS(=O)(=O)c1ccc(-n2ccc3cc(Cl)cnc32)nc1-c1nc2cc(C(F)(F)F)ncc2n1C [Example I-27]	100	100	4.41	4.39	100	100	100	–	–	–	–	–	–	–	–	–	–
CCS(=O)(=O)c1ccc(-n2ccc3ncc(Cl)cc32)nc1-c1nc2cc(C(F)(F)F)ncc2n1C [Example I-28]	100	100	3.13	3.05	–	100	90	80	100	–	–	–	–	–	–	–	–
CCS(=O)(=O)c1ccc(-n2ncc3cccnc32)nc1-c1nc2cc(C(F)(F)F)ncc2n1C [Example I-6]	100	100	2.67	2.63	100	100	–	90	100	100	100	100	90	100	–	–	–
CCS(=O)(=O)c1ccc(-n2nc3c(Cl)cc(C(F)(F)F)cn3c2=O)nc1-c1nc2cc(C(F)(F)F)ncc2n1C [Example I-32]	100	100	–	3.39	83	100	–	100	100	–	–	100	–	–	–	–	–
CCS(=O)(=O)c1ccc(-n2ncc3c(Cl)cccc32)nc1-c1nc2cc(C(F)(F)F)ncc2n1C [Example I-10]	100	100	–	–	100	100	–	–	100	–	–	100	80	–	4.27	4.24	–
CCS(=O)(=O)c1ccc(-n2cc3cccc(Cl)c3n2)nc1-c1nc2cc(C(F)(F)F)ncc2n1C [Example I-5]	–	100	–	–	100	100	–	–	100	70	90	–	80	–	3.94	3.92	–
CCS(=O)(=O)c1ccc(-n2ncc3cnccc32)nc1-c1nc2cc(C(F)(F)F)ncc2n1C [Example I-11]	–	83	–	–	–	–	–	–	–	–	–	–	90	–	1.75	2.47	–
CCS(=O)(=O)c1ccc(N2Cc3ccc(Cl)cc3C2)nc1-c1nc2cc(C(F)(F)F)ncc2n1C [Example I-18]	100	100	4.03	3.99	100	100	–	100	100	–	–	80	–	100	–	–	98
CCS(=O)(=O)c1ccc(-n2nc3cccc(Br)n3c2=O)nc1-c1nc2cc(C(F)(F)F)ncc2n1C [Example I-36]	–	–	2.70	2.72	–	–	100	–	–	–	–	–	–	–	–	–	–
